Assay results taken from ChEMBL document CHEMBL1201862, “PubChem BioAssay data set” (2004).
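Growth conditions: 96-well plates. Treatment: test compound, 48 hours, 5 concentrations. Analysis: linear interpolation between bracketing concentrations; unreached endpoints set to highest concentration. GI50 = concentration required for 50% inhibition of growth.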 The source made the active and inactive calls. Rule as the data show it: active = GI50 up to about 1.1 µM and inactive = higher.

Experiments:
Assay in all cases: inhibition of tumour cell growth, NCI panel, 48 h
SK-MEL-28 = test system: SK-MEL-28
LOX IMVI = test system: LOX IMVI
HCT-15 = test system: HCT-15
NCI-H522 = test system: NCI-H522
BT-549 = test system: BT-549
ACHN = test system: ACHN
OVCAR-4 = test system: OVCAR-4
MDA-N = test system: MDA-N
MCF7 = test system: MCF7
U-251 = test system: U-251
SF-295 = test system: SF-295
NCI/ADR-RES = test system: NCI/ADR-RES
CAKI-1 = test system: CAKI-1
SNB-75 = test system: SNB-75
SN12C = test system: SN12C
OVCAR-3 = test system: OVCAR-3
OVCAR-8 = test system: OVCAR-8
T47D = test system: T47D
786-0 = test system: 786-0
RPMI-8226 = test system: RPMI-8226

Row | SMILES | GI50 (SK-MEL-28) | GI50 (LOX IMVI) | GI50 (HCT-15) [µM] | GI50 (NCI-H522) | GI50 (BT-549) | GI50 (ACHN) | GI50 (OVCAR-4) | GI50 (MDA-N) | GI50 (MCF7) | GI50 (U-251) | GI50 (SF-295) | GI50 (NCI/ADR-RES) | GI50 (CAKI-1) | GI50 (SNB-75) | GI50 (SN12C) | GI50 (OVCAR-3) | GI50 (OVCAR-8) | GI50 (T47D) | GI50 (786-0) | GI50 (RPMI-8226)
1 | Cc1nc(N(C(C)C)C(C)C)c(C(C)C)o1 | > 100 µM (inactive) | > 100 µM (inactive) | > 100 | > 100 µM (inactive) | > 100 µM (inactive) | > 100 µM (inactive) | > 100 µM (inactive) | > 100 µM (inactive) | > 100 µM (inactive) | > 100 µM (inactive) | > 100 µM (inactive) | > 100 µM (inactive) | > 100 µM (inactive) | > 100 µM (inactive) | > 100 µM (inactive) | > 100 µM (inactive) | > 100 µM (inactive) | > 100 µM (inactive) | > 100 µM (inactive) | –
2 | COC(=O)C1=NN2c3ccccc3CN([C@@H](C)c3ccccc3)C(=O)[C@@H]2[C@H]1c1ccccc1 | > 100 µM (inactive) | > 100 µM (inactive) | > 100 | 43.4 µM (inactive) | > 100 µM (inactive) | > 100 µM (inactive) | > 100 µM (inactive) | > 100 µM (inactive) | > 100 µM (inactive) | > 100 µM (inactive) | > 100 µM (inactive) | 32.1 µM (inactive) | > 100 µM (inactive) | 30.3 µM (inactive) | > 100 µM (inactive) | > 100 µM (inactive) | > 100 µM (inactive) | 9.75 µM (inactive) | > 100 µM (inactive) | –
3 | Cc1cc(Nc2ccc(NS(C)(=O)=O)cc2)c2c(ccc3[nH]ccc32)n1 | 17.7 µM (inactive) | 18.5 µM (inactive) | > 100 | 9.35 µM (inactive) | 21.9 µM (inactive) | 22.8 µM (inactive) | 12.4 µM (inactive) | 17.6 µM (inactive) | 7.4 µM (inactive) | 15.1 µM (inactive) | 22.3 µM (inactive) | > 100 µM (inactive) | 29.5 µM (inactive) | – | 17.8 µM (inactive) | 13.1 µM (inactive) | 22.9 µM (inactive) | 3.5 µM (inactive) | 20.4 µM (inactive) | 20.6 µM (inactive)
4 | Cc1ccc2c(c1)C(=O)/C(=C\c1ccccc1)CCS2(=O)=O | 18.5 µM (inactive) | 10.7 µM (inactive) | 4.84 | 4.36 µM (inactive) | 6.68 µM (inactive) | 11.4 µM (inactive) | 12 µM (inactive) | 16.9 µM (inactive) | 6.21 µM (inactive) | 4.69 µM (inactive) | 14.2 µM (inactive) | 7.23 µM (inactive) | 17.2 µM (inactive) | 20.6 µM (inactive) | 14.2 µM (inactive) | 13.1 µM (inactive) | 11.6 µM (inactive) | 11.7 µM (inactive) | 11.2 µM (inactive) | –
5 | COC(=O)C1=C(O)C(C(=O)OC)[C@@]2(O)[C@@H](C(=O)OC)C(c3ccc(OC(=O)/C=C/c4ccccc4)cc3)C[C@@H]1[C@@H]2C(=O)OC (some centres undefined) | 20 µM (inactive) | 2.31 µM (inactive) | 3.89 | 5.3 µM (inactive) | 8.22 µM (inactive) | 18.9 µM (inactive) | 6.18 µM (inactive) | 3.24 µM (inactive) | 2.99 µM (inactive) | 6.15 µM (inactive) | 23.9 µM (inactive) | 8.41 µM (inactive) | 7.36 µM (inactive) | 29.6 µM (inactive) | 7.11 µM (inactive) | 9.77 µM (inactive) | 8.69 µM (inactive) | 8.49 µM (inactive) | 10 µM (inactive) | –
6 | C=C(CN(C)C)C(=O)c1ccccc1[N+](=O)[O-] | 17.6 µM (inactive) | 7.94 µM (inactive) | 10.8 | 3.56 µM (inactive) | 16.3 µM (inactive) | 16.1 µM (inactive) | 16.9 µM (inactive) | 14.5 µM (inactive) | 14.3 µM (inactive) | 32.2 µM (inactive) | 32.8 µM (inactive) | 19.2 µM (inactive) | 14.2 µM (inactive) | 34.8 µM (inactive) | 17.7 µM (inactive) | 18.9 µM (inactive) | 20.2 µM (inactive) | 3.83 µM (inactive) | 12.2 µM (inactive) | –
